Like-named read-outs stand apart in the source and are kept apart here.
Key:
Class 1 PI3K isoforms = settings: read-out: selectivity towards the Class 1 PI3K isoforms; cited from earlier work
[1] = Tissue concentration partitioning (plasma, mesenteric lymph node, fat) after single oral dose in Maisine, LC-MS/MS; assay type: in vivo; settings: mice, single oral 10 mg in Maisine; for Kp at 4 h: 4 hour time point; for concentration at 4 h: 4 hours post-dosing
Excerpt: Inhibitor compounds were synthesized to discover the underlying parameters needed in the development of chemical modifiers compatible with attachment to drug molecules to provide a drug having the physiochemical characteristics needed for uptake into the lymphatic system. […] This excipient vehicle contains long chain fatty acids and is used for hydrophobic compound solubilization.
Results were quantified using LC-MS/MS for plasma, mesenteric lymph node (LN) and mesenteric fat tissues.

[2] = Plasma and lymphatic tissue levels after single oral dose of ST-168 or PD901, LC-MS/MS (FIG. 3); assay type: in vivo; settings: lymphatic tissue / plasma; mouse, single oral dose in ORA-Plus suspension, 4 hours post-administration; read-out: lymphatic/plasma ratio
Method: LC-MS/MS quantification of drug concentrations in mouse tissues over time following a single oral dose is shown. FIG. 3 contains block diagrams for formulations in ORA-Plus liquid particulate suspension: FIG. 3A compound ST-168 levels at 4 hours in plasma and lymphatic tissue versus the MEK inhibitor PD0325901 (henceforth referred to as PD901). FIG. 3B ST-168 time dependence in plasma and lymphatic tissue, and formulated in Maisine, FIG. 3C ST-168 time dependence in plasma and lymphatic tissue following 100 mg/kg dose.
In FIG. 3, LC-MS/MS quantification of drug concentrations in mouse tissues over time are shown following a single oral suspension dose of ST-168 delivered in ORA-Plus®. ORA-Plus is an aqueous-based vehicle (ORA-Plus Product Data Sheet available at Perrigo Company's website) containing a synergistic blend of suspending agents having a high degree of colloidal activity. The suspending agents form a structured, gel-like matrix which suspends particles and allow for little settling. ORA-Plus is buffered to a slightly acidic pH to help reduce degradation of medicinal agents through oxidation. The ORA-Plus contains purified water, microcrystalline cellulose, carboxymethylcellulose sodium, xanthan gum, carrageenan, calcium sulfate, trisodium phosphate, citric acid and sodium phosphate as buffers and dimethicone antifoam emulsion, preserved with methylparaben and potassium sorbate. […] Any compound delivered in ORA-Plus is distributed to the plasma and lymphatic system based upon the physiochemical properties of the drug. Thus, the formulation itself only serves to provide for a suspension of drug particulates and dissolution of drug will be based upon water solubility.
This is an important distinction showing that Compound ST-168 has lymphatic absorptive properties because ORA-Plus is not a long chain fatty acid like Maisine. […] Data presented in FIGS. 3A through 3D reveal that the mEG linker technology for chemical coupling with drugs produces solubility properties consistent with formulation and bioavailability required for drug-like pharmaceutical characteristics and improved lymphatic absorption.

MEK1 = MEK1 (Homo sapiens, UniProt Q02750); test: In vitro inhibition of MEK1; assay type: biochemical
PI3Kα = PI3Kα (Homo sapiens, UniProt P42336); test: In vitro inhibition of PI3Kα; assay type: biochemical; settings: Table 14; read-out: IC50 (nM) PI3Kα
PI3Kα, sequence (P42336 whole entry, species assumed): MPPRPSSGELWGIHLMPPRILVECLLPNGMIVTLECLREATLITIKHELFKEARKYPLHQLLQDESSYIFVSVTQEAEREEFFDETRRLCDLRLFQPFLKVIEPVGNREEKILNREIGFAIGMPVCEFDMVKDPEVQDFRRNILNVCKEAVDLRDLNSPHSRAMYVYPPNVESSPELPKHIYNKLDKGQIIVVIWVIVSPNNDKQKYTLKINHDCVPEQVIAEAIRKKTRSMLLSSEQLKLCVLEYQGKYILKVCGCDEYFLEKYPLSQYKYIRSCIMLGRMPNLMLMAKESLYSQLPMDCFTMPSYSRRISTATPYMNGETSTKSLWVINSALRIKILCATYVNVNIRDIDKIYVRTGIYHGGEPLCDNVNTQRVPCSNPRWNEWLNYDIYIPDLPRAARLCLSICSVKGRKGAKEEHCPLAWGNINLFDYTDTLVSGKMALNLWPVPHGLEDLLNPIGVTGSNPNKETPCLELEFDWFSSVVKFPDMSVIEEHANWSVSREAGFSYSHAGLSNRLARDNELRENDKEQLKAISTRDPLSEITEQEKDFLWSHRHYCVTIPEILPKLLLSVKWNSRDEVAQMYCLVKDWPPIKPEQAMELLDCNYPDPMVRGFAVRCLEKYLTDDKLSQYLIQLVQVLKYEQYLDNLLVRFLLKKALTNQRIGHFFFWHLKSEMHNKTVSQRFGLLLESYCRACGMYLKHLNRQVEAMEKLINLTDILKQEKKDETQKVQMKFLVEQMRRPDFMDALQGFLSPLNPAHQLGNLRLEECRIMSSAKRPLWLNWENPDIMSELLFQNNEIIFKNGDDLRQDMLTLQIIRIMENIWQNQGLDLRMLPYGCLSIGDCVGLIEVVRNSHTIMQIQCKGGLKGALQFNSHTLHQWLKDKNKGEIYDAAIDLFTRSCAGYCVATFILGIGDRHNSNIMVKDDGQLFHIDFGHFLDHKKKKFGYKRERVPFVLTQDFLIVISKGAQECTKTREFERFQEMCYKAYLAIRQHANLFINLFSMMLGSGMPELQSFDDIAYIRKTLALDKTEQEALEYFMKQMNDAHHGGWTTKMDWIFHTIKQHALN
PI3Kα, sequence (P27986 whole entry partner, species assumed): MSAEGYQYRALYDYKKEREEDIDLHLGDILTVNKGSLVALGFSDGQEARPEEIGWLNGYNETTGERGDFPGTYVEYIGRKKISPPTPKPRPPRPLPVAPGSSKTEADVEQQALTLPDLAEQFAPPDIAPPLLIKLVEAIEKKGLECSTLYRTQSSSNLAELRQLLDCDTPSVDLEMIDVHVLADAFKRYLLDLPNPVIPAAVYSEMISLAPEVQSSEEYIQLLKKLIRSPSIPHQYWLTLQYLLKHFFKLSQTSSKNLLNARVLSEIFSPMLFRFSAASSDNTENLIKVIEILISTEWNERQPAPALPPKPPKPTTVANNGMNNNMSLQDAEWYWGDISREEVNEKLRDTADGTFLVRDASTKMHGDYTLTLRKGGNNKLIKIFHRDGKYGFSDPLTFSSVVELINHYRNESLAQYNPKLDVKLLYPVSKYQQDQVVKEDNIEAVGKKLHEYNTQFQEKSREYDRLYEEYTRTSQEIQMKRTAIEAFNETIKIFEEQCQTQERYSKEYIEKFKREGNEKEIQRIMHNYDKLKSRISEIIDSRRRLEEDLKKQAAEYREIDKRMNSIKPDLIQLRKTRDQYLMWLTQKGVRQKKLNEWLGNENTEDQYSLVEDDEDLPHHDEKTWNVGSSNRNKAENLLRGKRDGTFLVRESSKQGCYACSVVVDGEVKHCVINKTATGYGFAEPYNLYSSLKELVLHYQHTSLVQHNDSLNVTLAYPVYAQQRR

PI3Kδ = PI3Kδ (Homo sapiens, UniProt O00329); test: In vitro inhibition of PI3Kδ; assay type: biochemical; settings: Table 14; read-out: IC50 (nM) PI3Kδ
PI3Kδ, sequence (O00329 whole entry, species assumed): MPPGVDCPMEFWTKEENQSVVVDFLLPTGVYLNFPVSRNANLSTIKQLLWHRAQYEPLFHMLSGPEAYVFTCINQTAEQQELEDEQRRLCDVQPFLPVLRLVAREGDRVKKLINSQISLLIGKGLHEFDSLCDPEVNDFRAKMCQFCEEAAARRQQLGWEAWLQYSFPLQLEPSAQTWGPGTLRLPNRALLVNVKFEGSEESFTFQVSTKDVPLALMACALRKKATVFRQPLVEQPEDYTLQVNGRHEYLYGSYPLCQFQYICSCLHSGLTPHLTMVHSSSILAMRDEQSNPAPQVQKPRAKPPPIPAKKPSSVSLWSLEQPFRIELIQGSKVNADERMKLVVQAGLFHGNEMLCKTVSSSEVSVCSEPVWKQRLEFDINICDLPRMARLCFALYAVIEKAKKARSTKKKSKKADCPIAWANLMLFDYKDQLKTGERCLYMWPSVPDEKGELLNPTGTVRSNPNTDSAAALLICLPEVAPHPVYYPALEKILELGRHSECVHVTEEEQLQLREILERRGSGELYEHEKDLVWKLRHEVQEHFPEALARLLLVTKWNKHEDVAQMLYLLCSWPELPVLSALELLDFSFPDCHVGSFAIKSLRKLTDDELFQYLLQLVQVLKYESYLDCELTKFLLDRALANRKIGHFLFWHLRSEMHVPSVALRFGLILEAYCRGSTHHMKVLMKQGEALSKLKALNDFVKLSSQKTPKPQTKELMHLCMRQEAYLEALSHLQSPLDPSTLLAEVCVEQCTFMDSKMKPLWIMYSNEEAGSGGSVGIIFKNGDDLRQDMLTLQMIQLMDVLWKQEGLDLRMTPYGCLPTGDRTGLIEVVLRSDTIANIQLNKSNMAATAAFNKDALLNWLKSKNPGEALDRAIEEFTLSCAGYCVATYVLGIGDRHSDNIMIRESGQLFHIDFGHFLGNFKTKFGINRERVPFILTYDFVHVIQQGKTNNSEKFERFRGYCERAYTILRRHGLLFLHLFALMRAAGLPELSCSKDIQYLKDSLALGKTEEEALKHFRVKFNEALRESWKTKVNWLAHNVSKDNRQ
PI3Kδ, sequence (P27986 whole entry partner, species assumed): as the sequence (P27986 whole entry partner, species assumed) above

PI3Kβ = PI3Kβ (Homo sapiens, UniProt P42338); test: In vitro inhibition of PI3Kβ; assay type: biochemical; settings: Table 14; read-out: IC50 (nM) PI3Kβ
PI3Kβ, sequence (P42338 whole entry, species assumed): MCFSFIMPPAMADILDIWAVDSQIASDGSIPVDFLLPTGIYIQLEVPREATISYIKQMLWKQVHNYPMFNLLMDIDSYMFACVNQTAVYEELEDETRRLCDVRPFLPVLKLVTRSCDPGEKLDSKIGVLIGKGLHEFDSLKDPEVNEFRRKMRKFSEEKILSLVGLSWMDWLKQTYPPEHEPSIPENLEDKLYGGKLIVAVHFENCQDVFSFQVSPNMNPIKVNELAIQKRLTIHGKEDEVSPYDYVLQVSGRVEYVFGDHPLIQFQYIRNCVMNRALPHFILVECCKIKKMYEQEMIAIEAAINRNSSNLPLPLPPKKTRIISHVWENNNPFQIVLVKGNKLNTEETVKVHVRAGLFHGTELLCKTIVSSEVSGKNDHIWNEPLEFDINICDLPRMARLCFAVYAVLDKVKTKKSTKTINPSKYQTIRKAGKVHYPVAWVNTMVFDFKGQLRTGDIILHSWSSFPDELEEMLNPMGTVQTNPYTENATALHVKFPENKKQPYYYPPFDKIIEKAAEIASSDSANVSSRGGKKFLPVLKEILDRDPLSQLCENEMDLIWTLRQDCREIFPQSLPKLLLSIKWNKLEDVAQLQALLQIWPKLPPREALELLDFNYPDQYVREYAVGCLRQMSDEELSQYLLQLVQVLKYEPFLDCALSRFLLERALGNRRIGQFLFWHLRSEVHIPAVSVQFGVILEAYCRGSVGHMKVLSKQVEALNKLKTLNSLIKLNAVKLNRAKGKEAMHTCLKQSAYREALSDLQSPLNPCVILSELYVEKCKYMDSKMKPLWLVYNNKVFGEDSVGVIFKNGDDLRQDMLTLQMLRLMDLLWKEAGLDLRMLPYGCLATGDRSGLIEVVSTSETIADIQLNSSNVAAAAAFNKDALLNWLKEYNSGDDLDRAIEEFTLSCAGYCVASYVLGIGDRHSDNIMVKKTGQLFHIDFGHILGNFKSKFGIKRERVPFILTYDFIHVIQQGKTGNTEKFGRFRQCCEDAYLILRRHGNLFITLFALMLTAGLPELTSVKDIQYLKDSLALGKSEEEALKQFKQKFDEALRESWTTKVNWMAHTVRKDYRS
PI3Kβ, sequence (P27986 whole entry partner, species assumed): as the sequence (P27986 whole entry partner, species assumed) above

PI3Kγ = PI3Kγ (Homo sapiens, UniProt P48736); test: In vitro inhibition of PI3Kγ; assay type: biochemical; settings: Table 14; read-out: IC50 (nM) PI3Kγ
PI3Kγ, sequence (P48736 whole entry, species assumed): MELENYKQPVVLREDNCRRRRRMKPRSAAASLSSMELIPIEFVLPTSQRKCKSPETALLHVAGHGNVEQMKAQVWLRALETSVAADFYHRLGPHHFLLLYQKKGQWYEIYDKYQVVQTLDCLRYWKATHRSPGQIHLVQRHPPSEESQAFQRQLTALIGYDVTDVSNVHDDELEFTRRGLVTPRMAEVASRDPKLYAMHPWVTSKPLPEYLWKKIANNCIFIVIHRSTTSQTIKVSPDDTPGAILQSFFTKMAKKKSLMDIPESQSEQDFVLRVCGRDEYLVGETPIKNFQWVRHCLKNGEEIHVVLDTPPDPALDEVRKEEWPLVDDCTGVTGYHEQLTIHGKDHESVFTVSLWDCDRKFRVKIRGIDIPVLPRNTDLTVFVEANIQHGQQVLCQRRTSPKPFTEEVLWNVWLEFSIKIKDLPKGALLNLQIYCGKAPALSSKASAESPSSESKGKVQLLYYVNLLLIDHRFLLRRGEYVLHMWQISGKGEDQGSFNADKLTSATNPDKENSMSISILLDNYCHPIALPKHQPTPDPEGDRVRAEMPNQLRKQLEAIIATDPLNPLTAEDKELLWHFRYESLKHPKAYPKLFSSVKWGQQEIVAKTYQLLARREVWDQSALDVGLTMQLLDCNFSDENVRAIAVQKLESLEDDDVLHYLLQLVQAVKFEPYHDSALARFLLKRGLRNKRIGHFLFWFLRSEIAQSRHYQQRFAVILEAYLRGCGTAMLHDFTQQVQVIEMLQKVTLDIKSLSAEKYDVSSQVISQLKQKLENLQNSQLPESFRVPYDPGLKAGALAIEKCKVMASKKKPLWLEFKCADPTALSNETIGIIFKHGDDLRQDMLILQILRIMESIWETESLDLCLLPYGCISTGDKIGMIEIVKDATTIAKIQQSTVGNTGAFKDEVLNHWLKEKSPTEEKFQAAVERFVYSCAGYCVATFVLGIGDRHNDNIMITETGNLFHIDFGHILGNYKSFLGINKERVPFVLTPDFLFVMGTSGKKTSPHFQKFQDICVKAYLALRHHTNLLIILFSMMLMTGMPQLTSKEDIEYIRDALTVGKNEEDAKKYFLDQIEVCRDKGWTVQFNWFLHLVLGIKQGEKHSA

[3] = mouse, mesenteric lymph node / plasma, read-out: lymph/plasma ratio

COc1ccc(-c2ccc3c(N4CCOC[C@H]4C)nc(N4CCOC[C@H]4C)nc3n2)cc1CO [AZD 8055]
IC50 (Class 1 PI3K isoforms): > 1000 nM

O=C(NCCOCCOCCOCCNC(=O)c1ccccc1)c1ccccc1 [Compound 1]
Kp at 0.5 h ([1]; mouse, mesenteric lymph node / plasma, 0.5 hours, read-out: lymph/plasma ratio): ~0.6
Kp at 4 h [1, 3]: ~1
concentration at 4 h ([1]; mouse, mesenteric lymph node, read-out: lymphatic concentration): ~85 ng/mL
concentration at 4 h ([1]; mouse, plasma, read-out: plasma concentration): ~95 ng/mL

O=C(NCCCCCCCCCCCNC(=O)c1ccccc1)c1ccccc1 [Compound 2]
concentrations in tissues tested, compared to Compound 1 ([1]; plasma, mesenteric lymph node, fat): much lower concentrations in all tissues tested
Kp ([1]; mouse, mesenteric lymph node / plasma, between time points 0.5, 2, and 4 hours, read-out: lymph/plasma ratios): 3 to 5

O=C(NCCOCCOCCOCCNC(=O)c1cccc2ccccc12)c1cccc2ccccc12 [Compound 3]
Kp at 4 h [1, 3]: ~5

O=C(NCCCCCCCCCCCNC(=O)c1cccc2ccccc12)c1cccc2ccccc12 [Compound 4]
Kp at 4 h [1, 3]: ~6

O=C(NOC[C@H](O)CO)c1ccc(F)c(F)c1Nc1ccc(I)cc1F [Compound 901, reference compound]
Kp at 4 h [2]: ~1.2

O=C(O)CCOCCOCCOCCONC(=O)c1ccc(F)c(F)c1Nc1ccc(I)cc1F [MV6-8]
IC50 (MEK1): 72.3 ± 1.9 nM

CC(=O)N(C)CCNc1nc(N2CCOCC2)nc(-n2c(C(F)F)nc3ccccc32)n1 [ST-5-31]
IC50 (PI3Kα): 10.3 ± 1 nM
IC50 (PI3Kδ): 11.7 ± 2.2 nM
IC50 (PI3Kβ): 404 ± 63 nM
IC50 (PI3Kγ): 55.2 ± 11.5 nM

OCCN(CCO)c1nc(N2CCOCC2)nc(-n2c(C(F)F)nc3ccccc32)n1 [ST-5-32]
IC50 (PI3Kα): 3.74 ± 1 nM
IC50 (PI3Kδ): 9.9 ± 0.4 nM
IC50 (PI3Kβ): 74 ± 5.7 nM
IC50 (PI3Kγ): 14.6 ± 1.4 nM

From patent US11311624B2, “Inhibitors of MEK/PI3K, JAK/MEK, JAK/PI3K/mTOR and MEK/PI3K/mTOR biological pathways and methods for improving lymphatic uptake, bioavailability, and solubility of therapeutic compounds” (THE REGENTS OF THE UNIVERSITY OF MICHIGAN, priority 2017, dated 2022)
